Measured values reported in patent publication US8822517B2, “Arylosulfonamides for the treatment of CNS diseases” (Adamed SP. Z O.O., priority 2010, dated 2014).

Experiments:
[1] = biological target: T1, serotonine transporter (SERT) receptor (Homo sapiens, UniProt P31645); assay: Binding assay SERT (h), [3H]imipramine, CHO cells; settings: read-out: SERT [%]
T1 construct: expressed in transfected cells; host or cells: CHO cells
How it was run: (§1)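 Test conc. 1×10^−6 M. Read-out by scintillation counting. Specific = total − nonspecific (excess cold ligand).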

adrenergic α1 receptor = assay: Binding assay α1 (non-selective), [3H]prazosin, rat cerebral cortex; settings: percent inhibition of control specific binding; compounds tested at 1×10^−6 M
How it was run: as §1

dopaminergic D3 receptor = dopaminergic D3 receptor (Homo sapiens, UniProt P35462); assay: Binding assay D3 (h), [3H]methyl-spiperone, CHO cells; set-up: expressed in transfected cells; host or cells: CHO cells; settings: read-out: D3 [%]
How it was run: as §1

[2] = biological target: serotoninergic 5-HT6 receptor (Homo sapiens, UniProt P50406); assay: Binding assay 5-HT6 (h), [3H]LSD, CHO cells; set-up: expressed in transfected cells; host or cells: CHO cells; settings: read-out: 5-HT6
How it was run: as §1

[3] = biological target: serotoninergic 5-HT7 receptor (Homo sapiens, UniProt P34969); assay: Binding assay 5-HT7 (h), [3H]LSD, CHO cells; set-up: expressed in transfected cells; host or cells: CHO cells; settings: read-out: 5-HT7
How it was run: as §1

dopaminergic D2 receptor = dopaminergic D2 receptor (Homo sapiens, UniProt P14416); assay: Binding assay D2S (h), [3H]methyl-spiperone, HEK-293 cells; set-up: expressed in transfected cells; host or cells: HEK-293 cells; settings: read-out: D2 [%]
How it was run: as §1

[4] = biological target: T2, serotoninergic 5-HT1A receptor (Homo sapiens, UniProt P08908); assay: Binding assay 5-HT1A (h), [3H]8-OH-DPAT, HEK-293 cells; set-up: expressed in transfected cells; host or cells: HEK-293 cells; settings: read-out: 5-HT1A
T2 sequence (P08908 1-422): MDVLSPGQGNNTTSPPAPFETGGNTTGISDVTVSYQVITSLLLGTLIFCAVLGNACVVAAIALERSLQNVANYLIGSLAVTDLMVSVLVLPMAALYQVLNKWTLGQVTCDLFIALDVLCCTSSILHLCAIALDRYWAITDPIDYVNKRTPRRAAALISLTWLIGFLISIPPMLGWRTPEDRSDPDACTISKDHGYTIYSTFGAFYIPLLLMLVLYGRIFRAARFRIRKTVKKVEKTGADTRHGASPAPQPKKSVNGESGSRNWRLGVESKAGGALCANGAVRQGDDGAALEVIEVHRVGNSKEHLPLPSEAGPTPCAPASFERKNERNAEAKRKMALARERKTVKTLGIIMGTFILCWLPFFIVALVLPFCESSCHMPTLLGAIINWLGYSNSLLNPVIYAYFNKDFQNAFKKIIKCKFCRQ
How it was run: as §1

[5] = biological target: serotoninergic 5-HT2A receptor (Homo sapiens, UniProt P28223); assay: Binding assay 5-HT2A (h), [3H]ketanserin, HEK-293 cells; set-up: expressed in transfected cells; host or cells: HEK-293 cells; settings: read-out: 5-HT2A
How it was run: as §1

Sequence of dopaminergic D2 receptor (P14416 1-414 isoform P14416-2): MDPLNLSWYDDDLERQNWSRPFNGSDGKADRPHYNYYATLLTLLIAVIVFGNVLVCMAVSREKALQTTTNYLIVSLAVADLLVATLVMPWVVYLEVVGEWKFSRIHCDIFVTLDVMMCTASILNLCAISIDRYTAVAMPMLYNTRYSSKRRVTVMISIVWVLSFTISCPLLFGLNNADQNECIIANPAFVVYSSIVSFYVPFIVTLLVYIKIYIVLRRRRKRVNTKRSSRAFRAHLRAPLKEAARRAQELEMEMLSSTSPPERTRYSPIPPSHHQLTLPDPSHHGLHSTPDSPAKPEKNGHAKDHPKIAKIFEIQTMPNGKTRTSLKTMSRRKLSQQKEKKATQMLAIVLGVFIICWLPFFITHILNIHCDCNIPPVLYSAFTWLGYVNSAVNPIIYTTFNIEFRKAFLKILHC
T1 sequence (P31645 whole entry): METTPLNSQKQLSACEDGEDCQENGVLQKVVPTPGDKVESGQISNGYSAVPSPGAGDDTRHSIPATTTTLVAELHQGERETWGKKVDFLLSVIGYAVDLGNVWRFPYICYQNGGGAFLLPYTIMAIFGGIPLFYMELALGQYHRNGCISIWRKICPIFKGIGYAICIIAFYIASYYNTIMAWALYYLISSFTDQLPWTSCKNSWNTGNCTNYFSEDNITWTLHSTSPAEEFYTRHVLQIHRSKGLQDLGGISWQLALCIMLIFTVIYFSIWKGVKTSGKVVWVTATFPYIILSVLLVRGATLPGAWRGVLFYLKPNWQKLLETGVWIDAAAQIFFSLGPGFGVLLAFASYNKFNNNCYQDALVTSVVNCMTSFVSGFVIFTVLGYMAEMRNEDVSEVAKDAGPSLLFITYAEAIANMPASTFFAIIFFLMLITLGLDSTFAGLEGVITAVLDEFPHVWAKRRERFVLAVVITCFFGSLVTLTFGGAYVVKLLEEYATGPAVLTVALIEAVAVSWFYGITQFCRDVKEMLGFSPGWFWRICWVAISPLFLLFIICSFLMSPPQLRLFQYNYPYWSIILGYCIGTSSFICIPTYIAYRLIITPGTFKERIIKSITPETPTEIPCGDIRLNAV
Sequence of serotoninergic 5-HT7 receptor (P34969 whole entry): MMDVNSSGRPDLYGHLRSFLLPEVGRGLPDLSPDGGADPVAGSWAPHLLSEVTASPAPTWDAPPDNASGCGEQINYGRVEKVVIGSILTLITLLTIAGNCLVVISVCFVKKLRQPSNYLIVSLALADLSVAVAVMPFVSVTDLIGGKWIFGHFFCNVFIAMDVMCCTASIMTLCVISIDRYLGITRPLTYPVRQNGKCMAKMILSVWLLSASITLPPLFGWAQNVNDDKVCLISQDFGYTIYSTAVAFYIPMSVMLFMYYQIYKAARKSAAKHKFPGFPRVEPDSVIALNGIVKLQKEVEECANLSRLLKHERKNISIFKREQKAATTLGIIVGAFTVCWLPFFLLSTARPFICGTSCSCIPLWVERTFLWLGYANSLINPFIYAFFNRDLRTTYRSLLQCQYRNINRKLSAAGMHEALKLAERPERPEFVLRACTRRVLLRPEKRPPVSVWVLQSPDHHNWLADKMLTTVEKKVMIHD
Sequence of serotoninergic 5-HT2A receptor (P28223 whole entry): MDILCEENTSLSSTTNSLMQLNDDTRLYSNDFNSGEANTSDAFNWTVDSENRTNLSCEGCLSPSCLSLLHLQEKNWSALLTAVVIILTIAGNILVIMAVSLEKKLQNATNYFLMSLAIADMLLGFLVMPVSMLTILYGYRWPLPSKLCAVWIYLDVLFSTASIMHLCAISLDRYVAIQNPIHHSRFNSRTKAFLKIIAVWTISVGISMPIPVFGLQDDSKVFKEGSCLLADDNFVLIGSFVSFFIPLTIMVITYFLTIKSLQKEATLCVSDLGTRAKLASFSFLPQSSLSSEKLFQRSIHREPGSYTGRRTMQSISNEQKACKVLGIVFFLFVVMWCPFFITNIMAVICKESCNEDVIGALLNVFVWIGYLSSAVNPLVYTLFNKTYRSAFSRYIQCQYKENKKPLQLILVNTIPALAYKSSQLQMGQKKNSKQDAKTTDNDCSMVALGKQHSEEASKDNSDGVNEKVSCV
Sequence of dopaminergic D3 receptor (P35462 whole entry): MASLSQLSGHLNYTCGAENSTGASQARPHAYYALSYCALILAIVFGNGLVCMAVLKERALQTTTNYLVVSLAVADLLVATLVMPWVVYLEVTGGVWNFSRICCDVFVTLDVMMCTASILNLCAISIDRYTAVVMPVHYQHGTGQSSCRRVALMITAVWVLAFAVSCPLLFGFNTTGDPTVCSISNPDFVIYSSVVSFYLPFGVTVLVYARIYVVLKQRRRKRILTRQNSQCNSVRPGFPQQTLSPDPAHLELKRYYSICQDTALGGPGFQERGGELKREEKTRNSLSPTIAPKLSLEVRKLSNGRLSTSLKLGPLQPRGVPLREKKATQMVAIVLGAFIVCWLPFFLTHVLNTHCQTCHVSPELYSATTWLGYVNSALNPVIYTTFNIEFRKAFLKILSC
Sequence of serotoninergic 5-HT6 receptor (P50406 whole entry): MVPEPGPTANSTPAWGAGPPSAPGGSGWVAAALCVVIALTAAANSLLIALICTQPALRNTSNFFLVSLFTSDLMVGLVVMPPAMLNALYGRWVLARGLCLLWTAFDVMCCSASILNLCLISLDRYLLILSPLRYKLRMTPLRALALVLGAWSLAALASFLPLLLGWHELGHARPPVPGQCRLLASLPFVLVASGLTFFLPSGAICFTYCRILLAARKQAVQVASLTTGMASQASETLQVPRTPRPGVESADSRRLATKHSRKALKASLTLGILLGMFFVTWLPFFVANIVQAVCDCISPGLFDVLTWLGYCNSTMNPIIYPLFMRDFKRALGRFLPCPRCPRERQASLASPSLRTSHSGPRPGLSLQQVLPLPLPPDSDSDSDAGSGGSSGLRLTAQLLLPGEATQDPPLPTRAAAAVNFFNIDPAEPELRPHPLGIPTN

O=S(=O)(NCCCCN1CCN(c2cccc3c2OCCO3)CC1)c1cccc(F)c1 [Compound 388, N-[4-[4-(2,3-Dihydro-1,4-benzodioxin-5-yl)piperazin-1-yl]butyl]-3-fluorobenzenesulphonamide]
inhibition at 1 µM [1]: -28%
α1 [%] (adrenergic α1 receptor): 91%
inhibition at 1 µM (dopaminergic D3 receptor): 83%
inhibition at 1 µM [2]: -20%
inhibition at 1 µM [3]: 90%
inhibition at 1 µM (dopaminergic D2 receptor): 50%
inhibition at 1 µM [4]: 92%
inhibition at 1 µM [5]: 19%

O=S(=O)(NCCCCN1CCN(c2cccc3c2OCCO3)CC1)c1ccc(F)c(F)c1 [Compound 389, N-[4-[4-(2,3-Dihydro-1,4-benzodioxin-5-yl)piperazin-1-yl]butyl]-3,4-difluorobenzenesulphonamide]
inhibition at 1 µM [1]: 44%
α1 [%] (adrenergic α1 receptor): 93%
inhibition at 1 µM (dopaminergic D3 receptor): 85%
inhibition at 1 µM [2]: 19%
inhibition at 1 µM [3]: 93%
inhibition at 1 µM (dopaminergic D2 receptor): 50%
inhibition at 1 µM [4]: 118%
inhibition at 1 µM [5]: 56%

O=S(=O)(NCCCCN1CCN(c2cccc3c2OCCO3)CC1)c1cccc(Cl)c1 [Compound 390, 3-Chloro-N-[4-[4-(2,3-dihydro-1,4-benzodioxin-5-yl)piperazin-1-yl]butyl]benzenesulphonamide]
inhibition at 1 µM [1]: -15%
α1 [%] (adrenergic α1 receptor): 73%
inhibition at 1 µM (dopaminergic D3 receptor): 81%
inhibition at 1 µM [2]: 26%
inhibition at 1 µM [3]: 66%
inhibition at 1 µM (dopaminergic D2 receptor): 61%
inhibition at 1 µM [4]: 101%
inhibition at 1 µM [5]: 59%

O=S(=O)(NCCCCN1CCN(c2cccc3c2OCCO3)CC1)c1cccc(Br)c1 [Compound 391, 3-Bromo-N-[4-[4-(2,3-dihydro-1,4-benzodioxin-5-yl)piperazin-1-yl]butyl]benzenesulphonamide]
inhibition at 1 µM [1]: -28%
α1 [%] (adrenergic α1 receptor): 90%
inhibition at 1 µM (dopaminergic D3 receptor): 85%
inhibition at 1 µM [2]: 19%
inhibition at 1 µM [3]: 92%
inhibition at 1 µM (dopaminergic D2 receptor): 76%
inhibition at 1 µM [4]: 97%
inhibition at 1 µM [5]: 68%

O=S(=O)(NCCCCN1CCN(c2cccc3c2OCCO3)CC1)c1ccc(F)c(Cl)c1 [Compound 392, 3-Chloro-N-[4-[4-(2,3-dihydro-1,4-benzodioxin-5-yl)piperazin-1-yl]butyl]-4-fluorobenzenesulphonamide]
inhibition at 1 µM [1]: -11%
α1 [%] (adrenergic α1 receptor): 99%
inhibition at 1 µM (dopaminergic D3 receptor): 93%
inhibition at 1 µM [2]: 7%
inhibition at 1 µM [3]: 91%
inhibition at 1 µM (dopaminergic D2 receptor): 57%
inhibition at 1 µM [4]: 100%
inhibition at 1 µM [5]: 64%

O=S(=O)(NCCCCN1CCN(c2cccc3c2OCCO3)CC1)c1cccc(O)c1 [Compound 393, N-[4-[4-(2,3-Dihydro-1,4-benzodioxin-5-yl)piperazin-1-yl]butyl]-3-hydroxybenzenesulphonamide]
inhibition at 1 µM [1]: -7%
α1 [%] (adrenergic α1 receptor): 91%
inhibition at 1 µM (dopaminergic D3 receptor): 92%
inhibition at 1 µM [2]: 9%
inhibition at 1 µM [3]: 91%
inhibition at 1 µM (dopaminergic D2 receptor): 46%
inhibition at 1 µM [4]: 93%
inhibition at 1 µM [5]: 47%

COc1cccc(S(=O)(=O)NCCCCN2CCN(c3cccc4c3OCCO4)CC2)c1 [Compound 394, N-[4-[4-(2,3-Dihydro-1,4-benzodioxin-5-yl)piperazin-1-yl]butyl]-3-methoxybenzenesulphonamide]
inhibition at 1 µM [1]: 12%
α1 [%] (adrenergic α1 receptor): 92%
inhibition at 1 µM (dopaminergic D3 receptor): 86%
inhibition at 1 µM [2]: 18%
inhibition at 1 µM [3]: 98%
inhibition at 1 µM (dopaminergic D2 receptor): 72%
inhibition at 1 µM [4]: 95%
inhibition at 1 µM [5]: 71%

Cc1cccc(S(=O)(=O)NCCCCN2CCN(c3cccc4c3OCCO4)CC2)c1 [Compound 395, N-[4-[4-(2,3-Dihydro-1,4-benzodioxin-5-yl)piperazin-1-yl]butyl]-3-methylbenzenesulphonamide]
inhibition at 1 µM [1]: 69%
α1 [%] (adrenergic α1 receptor): 92%
inhibition at 1 µM (dopaminergic D3 receptor): 87%
inhibition at 1 µM [2]: -35%
inhibition at 1 µM [3]: 83%
inhibition at 1 µM (dopaminergic D2 receptor): 61%
inhibition at 1 µM [4]: 75%
inhibition at 1 µM [5]: 61%
